Results on 5 compounds are retold here after publication PMC6987128, “Target protein-oriented isolation of Hes1 dimer inhibitors using protein based methods” (Scientific Reports, 2020).

Test [1] relates to NSCs. The conditions noted are these: cited from earlier work.
For test [2], the system named is C17.2 mouse neural stem cells. Description: Neural stem cell differentiation assay (Tuj1/GFAP immunofluorescence staining). It counts as cell-based. To be noted: C17.2 cells, 100 μM, 6 days, positive control. An excerpt:
We recently developed another protein-based screening method, the target protein oriented natural products isolation method (TPO-NAPI) using protein beads (Fig. 2B). Agalloside, inohanamine, α-mangostine, BE-14106, isomicromonolactam, staurosporin and linarin were isolated as Hes1 binding compounds using the TPO-NAPI method[15],[17]. Rat Hes1 (1–95) containing basic and helix-loop-helix domains was immobilized because the helix-loop-helix domain is known to be important for Hes1-Hes1 interaction; therefore, utilizing this domain in the beads method would likely be effective for screening Hes1 dimer inhibitors. GST-Hes1 immobilized beads were prepared by mixing freshly prepared GST-Hes1 protein with glutathione Sepharose 4B beads. GST-only beads were prepared as a control. After incubating the beads with plant MeOH extracts at 4 °C for 2 h, bound compounds were eluted by adding EtOH and heating at 100 °C for 3 min, then the eluted compounds were analyzed by HPLC. […] The MeOH extract (64.6 g) of Terminalia chebula bark was partitioned with hexane, EtOAc and BuOH to obtain hexane (1.5 g), EtOAc (3.6 g), BuOH (42.6 g), and aqueous (20.5 g) soluble fractions. The EtOAc fraction contained the target peak and was subjected to silica gel column chromatography to give eight fractions (1A-H). Fraction 1D contained the target peak and was separated by ODS column chromatography and reverse-phase HPLC to give compound 11 (0.4 mg). Compound 11 was identified as 4-O-(4″-O-galloyl-α-L-rhamnopyranosyl)ellagic acid by comparison of its NMR data with reported spectral data[37]. […] This is the strongest Hes1 dimer inhibitor reported to date. The ability of 11 to accelerate the differentiation of C17.2 mouse neural stem cells was evaluated (Fig. 5). C17.2 cells (2 × 10^5 cells/mL) were seeded in a poly-L-lysine-coated 24 well plates and incubated for 24 h, then the cells were treated with DMSO (control), 100 μM valproic acid (VPA), 5 μM retinoic acid (RA) (positive controls) or 11 (1 or 5 μM) for 6 days. A confocal microscope was used to obtain images of differentiated neural cells after immunostaining class III β-tubulin (Tuj1) in neurons, and glial fibrillary acidic protein (GFAP) in astrocytes and nuclei (TO-PRO-3). […] In contrast, the control dish containing cells treated with DMSO contained small number of neurons.
C17.2 cells were cultured in proliferation medium [DMEM (DS Pharma Biomedical Co., Ltd. Osaka, Japan) supplemented with 10% fetal bovine serum (Biowest, Nuaillé, France), 5% horse serum (Gibco, Life Technologies, Tokyo, Japan)]. Neural differentiation of C17.2 cells was initiated by transferring the cells to differentiation medium [Neurobasal Medium (Gibco) supplemented with 2% B-27 without vitamin A (Gibco), 1% antibiotic-antimycotic (Gibco)]. All cultures were maintained in a humidified incubator at 37 °C in 5% CO2/95% air.
C17.2 cells were dissociated using the proliferation medium 2 × 10^5 cells/mL on cover glass (MATSUNAMI GLASS) coated with poly-L-lysine and fibronectin/laminin. After incubation for 24 h, cells were washed with D-MEM and treated with individual compounds in differentiation medium for 6 days.
C17.2 cells were fixed with 4% paraformaldehyde in PBS for 20 min at room temperature (r.t.) and washed with 1% BSA in PBS three times. After blocking with 10% BSA in 0.3% Triton X-100 in PBS for 45 min at r.t., fixed cells were incubated with primary antibodies (anti-βIII-Tubulin; Neuronal Class III, Mouse-Mono, 1:400, R&D Systems^TM; anti-GFAP, 1:400, VERITAS) for 12 h at 4 °C. After washing three times with 1% BSA in PBS (500 μL/well), cells were incubated with secondary antibodies (Alexa Fluor® 488 goat anti-mouse IgG (H + L), 1:400, Life Technologies; Alexa Fluor® 555 goat ant-rabbit IgG (H + L), 1:200, Life Technologies) for 1 hr at r.t. in the dark. […]

As for `CCCC(=O)/C=C/C1=C(O)C(=O)c2cc(O)c(O)cc2C1=O` [Lindbladione], in test [1], the “differentiation of NSCs to neurons” value was “accelerated the differentiation of NSCs to neurons”.

On to `CCCC(CCC)C(=O)O` [VPA, valproic acid, reference compound], for which the number of neurons entry in test [2] is given as “increased”.

`COc1ccc(-c2cc(=O)c3c(O[C@@H]4O[C@H](CO[C@@H]5OC[C@@H](O)[C@H](O)[C@H]5O)[C@@H](O)[C@H](O)[C@H]4O)cc(OC)cc3o2)cc1` [agalloside]: in test [1], the “differentiation of NSCs to neurons” value is given as “accelerated the differentiation of NSCs to neurons”.

As to `C/C=C/C=C/C=C/[C@@H]1NCC[C@@H](O)[C@H]1C` [inohanamine], in test [1], the “differentiation of NSCs to neurons” value was “accelerated the differentiation of NSCs to neurons”.

For isomicromonolactam, the “differentiation of NSCs to neurons” value in test [1] is reported as “accelerated the differentiation of NSCs to neurons”.
